Measurements reported in PMC6164588 (International Journal of Environmental Research and Public …, 2018).
Like-named read-outs stand apart in the source and are kept apart here.

Tests used:
[1] = system: Salmonella typhimurium TA97 strain; assay: Ames assay (Salmonella typhimurium/reverse mutation assay), TA97 strain
Text: (§1) TA97, TA98, TA100, and TA102 were used as standard test strains. The strains were provided by Jiangsu Provincial Center for Disease Control and Prevention and Guizhou Medical University. TA97 and TA98 strains primarily detect the genotoxic substances of frameshift mutants, while TA100 and TA102 strains detect DNA as a mutagenic substance for base pair substitution. TA102 strain has a different specificity from the other Salmonella strains routinely used in mutagenicity screening. It detects a variety of oxidative mutagens and seems to be more sensitive to some aldehydes and some DNA damaging compounds, which are negative with other Salmonella strains.
(§2) According to the standard Ames bacterial mutagenicity assay and Safety and Technical Standards for Cosmetics, the experiments were performed by the plate incorporation method with or without liver microsomal metabolic activation (S9) mixture. For the pure materials, the highest dose group was generally 5 mg/plate or 5 μL/plate. After the bacterial inhibition experiment, five dose groups (0.05, 0.5, 5, 50, 500 μg/plate) were determined for testing the chemicals. Three parallel plates were prepared for each dose. The chemicals (test chemicals or positive control drugs), the S9 system (with or without), and the S. typhimurium strains (TA97, TA98, TA100, TA102) were added to the nutrient mediums. The negative control (blank and solvent) groups and the positive control groups were also done with three parallel plates.
(§3) The chemicals and concentrations were as follows: In the absence of the S9 system: Dexon 50 μg/plate for the TA97, TA98, and TA102 strains, and NaN3 1.5 μg/plate for the TA100 strain.
(§4) Five concentrations for each chemical were tested for mutagenicity in the standard plate pre-incubation assay. The reported numbers of reverse mutation colonies per plate are mean values from triplicates obtained in one experiment. The experiment was repeated at two times.
(§5) All the plates for the experiments were incubated under the same conditions: 37 ± 0.5 °C, 48 h, dark.
(§6) The test series was set as 100%, 50%, 10%, 5%, and 0.5%. […] Then, 100 μL of the mixtures, which were at different doses, was added to each plate.
(§7) The mutagenicity ratio (MR) is calculated as MR = x/x0(1) where x is the number of reverse mutation colonies on compound-treated plates and x0 is the number of reverse mutation colonies in the negative control group.
(§8) When the mutagenicity ratio (MR) is ≥2 and the dose–response relationship and the background are normal, the mutagenesis is judged as positive.

[2] = system: Salmonella typhimurium TA98 strain; assay: Ames assay (Salmonella typhimurium/reverse mutation assay), TA98 strain
Text: as §1, §2, §3, §4, §5, §6, §7, §8

[3] = system: Salmonella typhimurium TA100 strain; conditions: for Mutation effect, TA100 strain: absence of S9
Text: as §1, §2, §3, §4, §5, §6, §7, §8

[4] = system: Salmonella typhimurium TA102 strain; assay: Ames assay (Salmonella typhimurium/reverse mutation assay), TA102 strain
Text: as §1, §2, §3, §4, §5, §6, §7, §8

[5] = system: S. typhimurium TA97 strain; assay: Bacterial inhibition experiment, TA97 strain
Description: (§9) Bacterial inhibition experiment is necessary according to the standard Ames bacterial mutagenicity assay. Safety and Technical Standards for Cosmetics require that the maximum chemical dose should be 5 mg/plate. […] The maximum concentration of both were 50 mg/mL, then diluted to 25 mg/mL, 10 mg/mL, 5 mg/mL, and 0.5 mg/mL. Plates were poured with LB medium, and 0.1 mL of the above solution and 0.1 mL of bacterial solution per dish were added.
(§10) The criteria for determining the highest dose of the test substance are its toxicity to the bacteria and its solubility. A decrease in spontaneous reversion variables, a decrease in background bacteria, or a decrease in the number of bacteria in the culture being treated are signs of toxicity.
(§11) For this, bacterial growth inhibition tests were designed and carried out.

[6] = system: S. typhimurium TA98 strain; assay: Bacterial inhibition experiment, TA98 strain
Description: as §9, §10, §11

[7] = system: S. typhimurium TA100 strain; assay: Bacterial inhibition experiment, TA100 strain
Description: as §9, §10, §11

[8] = system: S. typhimurium TA102 strain; assay: Bacterial inhibition experiment, TA102 strain
Description: as §9, §10, §11

TA98 strain = conditions: concentrations of 300 μg/plate and 500 μg/plate; cited from earlier work
TA100 strain = conditions: concentrations of 300 μg/plate and 500 μg/plate; cited from earlier work
[9] = dose 50 μg/plate, −S9, positive control

## O=C(c1ccccc1)c1ccc(O)cc1O [BP-1, benzophenone-1]
[1]; +S9 system, doses from 0.05 μg/plate to 500 μg/plate
  Mutagenic activities, TA97 strain: no mutagenic activities were detected
[1]; absence of S9, doses of 0.05 and 0.5 μg/plate
  Mutagenicity, TA97 strain: significant mutagenicity
[1]; dose 0.05 μg/plate
  Reverse mutation colonies TA97 +S9: 151 ± 8 colonies per plate
  Mutagenicity ratio (MR) flag TA97 −S9: * (MR ≥ 2 compared to control)
  Reverse mutation colonies TA97 −S9: 925 ± 13 colonies per plate
[1]; dose 0.5 μg/plate
  Reverse mutation colonies TA97 +S9: 143 ± 10 colonies per plate
  Mutagenicity ratio (MR) flag TA97 −S9: * (MR ≥ 2 compared to control)
  Reverse mutation colonies TA97 −S9: 697 ± 56 colonies per plate
[1]; dose 5 μg/plate
  Reverse mutation colonies TA97 +S9: 146 ± 10 colonies per plate
  Reverse mutation colonies TA97 −S9: 185 ± 10 colonies per plate
[1]; dose 50 μg/plate
  Reverse mutation colonies TA97 +S9: 149 ± 11 colonies per plate
  Reverse mutation colonies TA97 −S9: 83 ± 6 colonies per plate
[1]; dose 500 μg/plate
  Reverse mutation colonies TA97 +S9: 88 ± 20 colonies per plate
  Reverse mutation colonies TA97 −S9: 6 ± 1 colonies per plate
[2]; dose 0.05 μg/plate
  Reverse mutation colonies TA98 +S9: 51 ± 7 colonies per plate
[2]; dose 0.05 μg/plate, −S9
  Reverse mutation colonies TA98 −S9: 43 ± 13 colonies per plate
[2]; dose 0.5 μg/plate
  Reverse mutation colonies TA98 +S9: 48 ± 2 colonies per plate
[2]; dose 0.5 μg/plate, −S9
  Reverse mutation colonies TA98 −S9: 46 ± 8 colonies per plate
[2]; dose 5 μg/plate
  Reverse mutation colonies TA98 +S9: 52 ± 7 colonies per plate
[2]; dose 5 μg/plate, −S9
  Reverse mutation colonies TA98 −S9: 33 ± 3 colonies per plate
[2]; dose 50 μg/plate
  Reverse mutation colonies TA98 +S9: 36 ± 1 colonies per plate
[2]; dose 50 μg/plate, −S9
  Reverse mutation colonies TA98 −S9: 22 ± 9 colonies per plate
[2]; dose 500 μg/plate
  Reverse mutation colonies TA98 +S9: 23 ± 2 colonies per plate
[2]; dose 500 μg/plate, −S9
  Reverse mutation colonies TA98 −S9: 0 ± 1 colonies per plate
[2]; systems both with and without S9
  Mutagenicity result, TA98 strain: not mutagenic
[3]; dose 0.5 μg/plate
  Mutation effect, TA100 strain: significant mutation effect
  Reverse mutation colonies TA100 +S9: 193 ± 12 colonies per plate
[3]; doses of 5, 50, and 500 μg/plate
  Mutation effect, TA100 strain: no obvious mutations
[3]; dose 0.05 μg/plate
  Reverse mutation colonies TA100 +S9: 174 ± 13 colonies per plate
[3]; dose 0.05 μg/plate, −S9
  Reverse mutation colonies TA100 −S9: 239 ± 17 colonies per plate
[3]; dose 0.5 μg/plate, −S9
  Mutagenicity ratio (MR) flag TA100 −S9: * (MR ≥ 2 compared to control)
  Reverse mutation colonies TA100 −S9: 458 ± 29 colonies per plate
[3]; dose 5 μg/plate
  Reverse mutation colonies TA100 +S9: 191 ± 8 colonies per plate
[3]; dose 5 μg/plate, −S9
  Reverse mutation colonies TA100 −S9: 153 ± 2 colonies per plate
[3]; dose 50 μg/plate
  Reverse mutation colonies TA100 +S9: 196 ± 4 colonies per plate
[3]; dose 50 μg/plate, −S9
  Reverse mutation colonies TA100 −S9: 188 ± 15 colonies per plate
[3]; dose 500 μg/plate
  Reverse mutation colonies TA100 +S9: 122 ± 4 colonies per plate
[3]; dose 500 μg/plate, −S9
  Reverse mutation colonies TA100 −S9: 181 ± 10 colonies per plate
[4]; dose 0.05 μg/plate, +S9
  Reverse mutation colonies TA102 +S9: 350 ± 11 colonies per plate
[4]; dose 0.05 μg/plate, −S9
  Reverse mutation colonies TA102 −S9: 311 ± 12 colonies per plate
[4]; dose 0.5 μg/plate, +S9
  Reverse mutation colonies TA102 +S9: 369 ± 10 colonies per plate
[4]; dose 0.5 μg/plate, −S9
  Reverse mutation colonies TA102 −S9: 369 ± 18 colonies per plate
[4]; dose 5 μg/plate, +S9
  Reverse mutation colonies TA102 +S9: 443 ± 8 colonies per plate
[4]; dose 5 μg/plate, −S9
  Reverse mutation colonies TA102 −S9: 355 ± 20 colonies per plate
[4]; dose 50 μg/plate, +S9
  Reverse mutation colonies TA102 +S9: 429 ± 8 colonies per plate
[4]; dose 50 μg/plate, −S9
  Reverse mutation colonies TA102 −S9: 407 ± 16 colonies per plate
[4]; dose 500 μg/plate, +S9
  Reverse mutation colonies TA102 +S9: 390 ± 10 colonies per plate
[4]; dose 500 μg/plate, −S9
  Reverse mutation colonies TA102 −S9: 7 ± 4 colonies per plate
[4]; presence or absence of S9
  Mutagenicity, TA102 strain: not mutagenic
[5]; dose 50 μg/plate
  Bacterial inhibition t-Test Result TA97: −
[5]; dose 500 μg/plate
  Bacterial inhibition t-Test Result TA97: + (t-test (p < 0.05))
[5]; dose 1000 μg/plate
  Bacterial inhibition t-Test Result TA97: + (t-test (p < 0.05))
[5]; dose 2500 μg/plate
  Bacterial inhibition t-Test Result TA97: ++ (t-test (p < 0.01))
[5]; dose 5000 μg/plate
  Bacterial inhibition t-Test Result TA97: ++ (t-test (p < 0.01))
[6]; dose 50 μg/plate
  Bacterial inhibition t-Test Result TA98: −
[6]; dose 500 μg/plate
  Bacterial inhibition t-Test Result TA98: + (t-test (p < 0.05))
[6]; dose 1000 μg/plate
  Bacterial inhibition t-Test Result TA98: + (t-test (p < 0.05))
[6]; dose 2500 μg/plate
  Bacterial inhibition t-Test Result TA98: ++ (t-test (p < 0.01))
[6]; dose 5000 μg/plate
  Bacterial inhibition t-Test Result TA98: ++ (t-test (p < 0.01))
[7]; dose 50 μg/plate
  Bacterial inhibition t-Test Result TA100: −
[7]; dose 1000 μg/plate
  Bacterial inhibition t-Test Result TA100: + (t-test (p < 0.05))
[7]; dose 2500 μg/plate
  Bacterial inhibition t-Test Result TA100: ++ (t-test (p < 0.01))
[7]; dose 5000 μg/plate
  Bacterial inhibition t-Test Result TA100: ++ (t-test (p < 0.01))
[8]; dose 50 μg/plate
  Bacterial inhibition t-Test Result TA102: −
[8]; dose 500 μg/plate
  Bacterial inhibition t-Test Result TA102: + (t-test (p < 0.05))
[8]; dose 1000 μg/plate
  Bacterial inhibition t-Test Result TA102: + (t-test (p < 0.05))
[8]; dose 2500 μg/plate
  Bacterial inhibition t-Test Result TA102: ++ (t-test (p < 0.01))
[8]; dose 5000 μg/plate
  Bacterial inhibition t-Test Result TA102: ++ (t-test (p < 0.01))
TA98 strain
  Mutagenicity, TA98 strain: None of the compounds produced clear positive mutagenicity results
TA100 strain
  Mutagenicity, TA100 strain: None of the compounds produced clear positive mutagenicity results

## O=C1c2cccc(O)c2C(=O)c2c(O)cccc21 [Dantron, reference compound]
[4]; dose 50 μg/plate, +S9
  Reverse mutation colonies TA102 +S9: 625 ± 71 colonies per plate
[4]; dose 50 μg/plate, +S9, positive control
  Mutagenicity ratio (MR) flag TA102 +S9: * (MR ≥ 2 compared to control)

## CN(C)c1ccc(N=NS(=O)(=O)[O-])cc1.[Na+] [Dexon, reference compound]
[1]; dose 50 μg/plate
  Reverse mutation colonies TA97 −S9: 1987 ± 203 colonies per plate
[1]; dose 50 μg/plate, positive control
  Mutagenicity ratio (MR) flag TA97 −S9: * (MR ≥ 2 compared to control)
[2]; dose 50 μg/plate, −S9
  Reverse mutation colonies TA98 −S9: 1065 ± 137 colonies per plate
[2]; [9]
  Mutagenicity ratio (MR) flag TA98 −S9: * (MR ≥ 2 compared to control)
[4]; dose 50 μg/plate, −S9
  Reverse mutation colonies TA102 −S9: 586 ± 83 colonies per plate
[4]; [9]
  Mutagenicity ratio (MR) flag TA102 −S9: * (MR ≥ 2 compared to control)
